Source: patent US20260158050A1, “USE OF EIDD-1931 OR DERIVATIVE THEREOF IN TREATMENT OF ENTEROVIRUS INFECTION” (ACADEMY OF MILITARY MEDICAL SCIENCES, priority 2022, published 2026)

Legend:
various enteroviruses = test: broad-spectrum anti-enteroviral activity (CPE), summary over viruses; assay type: cell-based; conditions: all viruses of Table 1; read-out: EC50 values against various enteroviruses
Protocol: In this experiment, the experiment on protection of EIDD-1931 and EIDD-2801 against CPE caused by EV-A71 virus AH08/06 strain, EV-D68 virus STL-2014-12 strain, CV-A6 TW-2007-00141 strain, and CV-A16 190-D1 strain were all performed by using RD cells. The experiments on protection of EIDD-1931 and EIDD-2801 against CPE caused by CV-B3 Nancy strain were performed by using Vero cells. The specific experimental methods were the same as those in Example 1.

[1] = tested on: CHIKV, VEEV, RSV, HCV, NV, IAV, IBV, EBOV, MERS-CoV, SARS-CoV-2; conditions: background art; cited from earlier work

For O=c1nc(NO)ccn1[C@@H]1O[C@H](CO)[C@@H](O)[C@H]1O [EIDD-1931], the EC50 (various enteroviruses) is given as under 20 µM and the “inhibitory effects against CHIKV, VEEV, RSV, HCV, NV, IAV, IBV, EBOV, MERS-CoV and SARS-CoV-2” value [1] is given as “good inhibitory effects”.
